Laboratory results: PubChem BioAssay AID1648 (Sanford-Burnham Center for Chemical Genomics, 2009)
Activity calls are given as the source filed them. How the calls were made is not given here.

Target: Serine/threonine-protein kinase mTOR (Homo sapiens) (UniProt P42345)
Experiment: binders of mTOR FRB domain, biophysical, NMR (AID 1648)
Settings: NMR binding to FRB domain, chemical shift

Chain of Serine/threonine-protein kinase mTOR (Homo sapiens) (P42345 2015-2114): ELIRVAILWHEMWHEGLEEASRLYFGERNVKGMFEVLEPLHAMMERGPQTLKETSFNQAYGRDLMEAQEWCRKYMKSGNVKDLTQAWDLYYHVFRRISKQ

| SMILES | Kd |
| --- | --- |
| O=C1CCCC(=O)N1Cc1ccco1 | > 4 mM (inactive) |
| CC(=O)Nc1cc(S(=O)(=O)N(C)C)ccc1Cl | > 4 mM (inactive) |
| COc1ccc2nc(N)sc2n1 | > 4 mM (inactive) |
| Cc1c(C(=O)NCc2ccccn2)oc2ccccc12 | > 4 mM (inactive) |
| O=C(/C=C/c1ccccc1)c1ccc(O[C@@H]2O[C@H](CO)[C@@H](O)[C@H](O)[C@H]2O)cc1O | > 4 mM (inactive) |
| CC(=O)Nc1cccc(-c2n[nH]c(=S)n2C)c1 | > 4 mM (inactive) |
| O=C(O)C1CC(C2CCCCN2)CN2CCCCC12 (stereo not drawn) | > 4 mM (inactive) |
| CN(C)N1C(=O)c2ccccc2C1=O | > 4 mM (inactive) |
| Cc1ccccc1C(=O)Nc1cccc(N)c1 | > 4 mM (inactive) |
| CCC1(CC)C(=O)N=C(N)NC1=O | > 4 mM (inactive) |
| Nc1ncnc2nc[nH]c12 | > 4 mM (inactive) |
| CC1(C)C(=O)CC[C@@]2(C)C1C[C@@H](O)[C@@]1(C)C3=CC(=O)O[C@@H](c4ccoc4)[C@]3(C)CCC21 (stereo partly drawn) | > 4 mM (inactive) |
| Cc1ccc(C(=O)Nn2cnnc2)s1 | > 4 mM (inactive) |
| Nc1ccc(S(=O)(=O)N2CCCCC2)cc1 | > 4 mM (inactive) |
| C[C@@H]1O[C@@H](O[C@H]2[C@H](Oc3cc(O)c4c(=O)cc(-c5ccc(O)cc5)oc4c3)O[C@H](CO)[C@@H](O)[C@@H]2O)[C@H](O)[C@H](O)[C@H]1O | > 4 mM (inactive) |
| CC(=O)N1N=C(N)SC1c1cccnc1 (stereo not drawn) | > 4 mM (inactive) |
| NC(=O)CS(=O)(=O)c1ccc2ccccc2c1 | > 4 mM (inactive) |
| O=C(Nc1ccon1)c1ccccc1Cl | > 4 mM (inactive) |
| O=C(Nc1ccc2c(c1)OCO2)c1cccs1 | > 4 mM (inactive) |
| N#CCSc1nc(-c2ccccc2)cs1 | > 4 mM (inactive) |
| Oc1cc(O)c2c(c1)O[C@H](c1cc(O)c(O)c(O)c1)[C@H](O)C2 | > 4 mM (inactive) |
| CNC(=O)N1CCN(C(=O)NC)CC1 | > 4 mM (inactive) |
| C=C1CSc2nc(=O)c3c(C)c(C)sc3n21 | > 4 mM (inactive) |
| C[n+]1ccc(C(=O)[O-])cc1 | > 4 mM (inactive) |

| SMILES | Kd |
| --- | --- |
| C=C(C)C1CC=C(CO)CC1 (stereo not drawn) | > 4 mM (inactive) |
| O=C(O)CN1CCNCC1 | > 4 mM (inactive) |
| CNC(=O)c1ccc([N+](=O)[O-])cc1Cl | > 4 mM (inactive) |
| N#Cc1c(N)c(C(=O)c2ccccc2)n2c1CCC2 | > 4 mM (inactive) |
| NN1C(=O)/C(=C/c2ccc(O)c(O)c2)SC1=S | > 4 mM (inactive) |
| CC(C)=CCc1c(O)cc(C)oc1=O | > 4 mM (inactive) |
| Cc1ccc2nc(SCC(=O)O)nc(C)c2c1 | > 4 mM (inactive) |
| CC(C)C(C)/C=C/C(C)C1CCC2C3=CC=C4CC(O)CCC4(C)C3CCC21C (stereo not drawn) | > 4 mM (inactive) |
| O=C1CCC([N+](=O)[O-])C(c2ccccc2F)N1 (stereo not drawn) | > 4 mM (inactive) |
| O=C(Nc1nncs1)C1(c2ccccc2)CCCC1 | > 4 mM (inactive) |
| O=C1CCCCCN1CO | > 4 mM (inactive) |
| Nc1nc(NCc2ccco2)nn1-c1ccccc1 | > 4 mM (inactive) |
| OC/C=C/c1ccc(O)c(O)c1 | > 4 mM (inactive) |
| O=C(O)c1cnc2sc3ccccc3n2c1=O | > 4 mM (inactive) |
| Nc1cc(=O)[nH]c(SCC(=O)NC2CCCCC2)n1 | > 4 mM (inactive) |
| COc1ccc(C(=O)/C=C2\NC(=S)NC2=O)cc1 | > 4 mM (inactive) |
| CCC(C)C(NC)C(=O)O (stereo not drawn) | > 4 mM (inactive) |
| C[N+](C)(C)CC(O)CC(=O)O (stereo not drawn) | > 4 mM (inactive) |
| Nc1cccc(NC(=O)c2cccs2)c1 | > 4 mM (inactive) |
| CCOC(=O)CSCC(=O)Nc1nccs1 | > 4 mM (inactive) |
| CCn1nccc1C(=O)Nc1ccc(Cl)cc1Cl | > 4 mM (inactive) |
| O=C1CSC(=Nc2ccc(O)cc2)N1 | > 4 mM (inactive) |
| CCOC(=O)CSc1nnc(C)c(=O)[nH]1 | > 4 mM (inactive) |
| O=C1CSC(=Nc2cc(Cl)ccc2Cl)N1 | > 4 mM (inactive) |
